How the values were obtained:
Androgen receptor = molecular target: T1, Androgen receptor (Homo sapiens, UniProt P10275)
T1 sequence (P10275 whole entry): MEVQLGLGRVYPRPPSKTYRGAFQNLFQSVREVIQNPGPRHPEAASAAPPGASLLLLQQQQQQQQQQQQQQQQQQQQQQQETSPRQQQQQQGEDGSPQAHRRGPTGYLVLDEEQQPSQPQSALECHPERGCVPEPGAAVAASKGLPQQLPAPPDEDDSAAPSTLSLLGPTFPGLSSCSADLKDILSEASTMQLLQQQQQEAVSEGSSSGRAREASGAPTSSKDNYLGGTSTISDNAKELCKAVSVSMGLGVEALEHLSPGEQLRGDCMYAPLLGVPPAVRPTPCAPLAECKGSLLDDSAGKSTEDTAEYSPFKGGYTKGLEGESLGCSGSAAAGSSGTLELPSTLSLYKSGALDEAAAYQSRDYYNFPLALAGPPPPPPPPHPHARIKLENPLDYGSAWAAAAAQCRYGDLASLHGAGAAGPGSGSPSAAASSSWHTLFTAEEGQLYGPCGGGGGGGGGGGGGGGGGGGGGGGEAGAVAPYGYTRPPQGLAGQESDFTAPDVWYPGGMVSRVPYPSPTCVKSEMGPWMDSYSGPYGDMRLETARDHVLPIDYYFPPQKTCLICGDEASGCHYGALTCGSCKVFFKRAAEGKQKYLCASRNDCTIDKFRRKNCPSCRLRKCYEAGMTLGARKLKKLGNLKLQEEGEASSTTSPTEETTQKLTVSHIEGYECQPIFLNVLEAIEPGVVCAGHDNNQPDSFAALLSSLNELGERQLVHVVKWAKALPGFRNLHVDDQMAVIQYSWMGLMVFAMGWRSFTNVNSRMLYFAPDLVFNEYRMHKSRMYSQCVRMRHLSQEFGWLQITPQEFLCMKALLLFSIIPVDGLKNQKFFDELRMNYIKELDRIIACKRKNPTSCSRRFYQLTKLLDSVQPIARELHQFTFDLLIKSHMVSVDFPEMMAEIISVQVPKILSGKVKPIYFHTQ

[1] = molecular target: Gamma-aminobutyric acid receptor subunit alpha-1/alpha-2/beta-2/gamma-2 (Homo sapiens, UniProt P14867+P18507+P47869+P47870); format: protein-complex assay
D(1A) dopamine receptor = D(1A) dopamine receptor (Homo sapiens, UniProt P21728)
Glucagon receptor = Glucagon receptor (Homo sapiens, UniProt P47871)
Progesterone receptor = molecular target: T2, Progesterone receptor (Homo sapiens, UniProt P06401)
T2 sequence (P06401 whole entry): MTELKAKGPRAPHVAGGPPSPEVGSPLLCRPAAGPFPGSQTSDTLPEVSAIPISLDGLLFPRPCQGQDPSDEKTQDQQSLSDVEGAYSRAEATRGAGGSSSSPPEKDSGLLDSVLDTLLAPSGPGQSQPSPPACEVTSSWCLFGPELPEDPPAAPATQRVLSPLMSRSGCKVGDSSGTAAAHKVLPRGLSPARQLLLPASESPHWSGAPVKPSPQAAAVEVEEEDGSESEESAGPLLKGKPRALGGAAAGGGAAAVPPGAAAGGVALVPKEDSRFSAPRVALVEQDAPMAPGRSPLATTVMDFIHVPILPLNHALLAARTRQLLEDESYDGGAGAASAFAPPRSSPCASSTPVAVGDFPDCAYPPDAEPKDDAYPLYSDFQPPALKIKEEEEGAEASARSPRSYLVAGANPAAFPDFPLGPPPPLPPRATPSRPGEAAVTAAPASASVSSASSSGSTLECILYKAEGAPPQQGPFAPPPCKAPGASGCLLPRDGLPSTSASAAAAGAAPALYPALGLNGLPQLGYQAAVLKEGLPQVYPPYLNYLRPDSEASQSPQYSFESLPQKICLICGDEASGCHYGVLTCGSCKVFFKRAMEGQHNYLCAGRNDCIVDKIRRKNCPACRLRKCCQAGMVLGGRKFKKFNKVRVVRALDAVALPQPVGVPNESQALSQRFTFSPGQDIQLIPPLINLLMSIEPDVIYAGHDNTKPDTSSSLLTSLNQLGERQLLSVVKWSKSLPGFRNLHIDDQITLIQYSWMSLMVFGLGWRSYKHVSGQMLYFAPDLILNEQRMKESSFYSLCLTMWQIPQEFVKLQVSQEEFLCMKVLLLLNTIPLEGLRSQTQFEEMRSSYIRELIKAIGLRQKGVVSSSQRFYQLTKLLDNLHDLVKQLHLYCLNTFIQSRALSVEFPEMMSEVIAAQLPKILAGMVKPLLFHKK

[2] = molecular target: 5-hydroxytryptamine receptor 2A (Homo sapiens, UniProt P28223); format: functional, cell-based
Also: assay procedure not described here.

Sequence of Gamma-aminobutyric acid receptor subunit alpha-1/alpha-2/beta-2/gamma-2 (P14867 whole entry): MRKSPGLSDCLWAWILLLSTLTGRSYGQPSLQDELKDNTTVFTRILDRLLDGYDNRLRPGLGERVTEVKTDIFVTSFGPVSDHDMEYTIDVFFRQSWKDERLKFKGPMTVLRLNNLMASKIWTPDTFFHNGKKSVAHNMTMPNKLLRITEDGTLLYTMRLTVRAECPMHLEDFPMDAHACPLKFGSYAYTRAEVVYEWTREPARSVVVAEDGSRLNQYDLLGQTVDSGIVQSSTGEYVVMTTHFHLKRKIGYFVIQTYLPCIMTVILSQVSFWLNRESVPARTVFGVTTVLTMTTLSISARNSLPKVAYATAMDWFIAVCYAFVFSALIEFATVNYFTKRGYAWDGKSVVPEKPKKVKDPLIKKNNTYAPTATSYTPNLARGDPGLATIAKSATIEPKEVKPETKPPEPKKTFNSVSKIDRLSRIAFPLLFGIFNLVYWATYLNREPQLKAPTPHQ
Sequence of Gamma-aminobutyric acid receptor subunit alpha-1/alpha-2/beta-2/gamma-2 (P47870 whole entry): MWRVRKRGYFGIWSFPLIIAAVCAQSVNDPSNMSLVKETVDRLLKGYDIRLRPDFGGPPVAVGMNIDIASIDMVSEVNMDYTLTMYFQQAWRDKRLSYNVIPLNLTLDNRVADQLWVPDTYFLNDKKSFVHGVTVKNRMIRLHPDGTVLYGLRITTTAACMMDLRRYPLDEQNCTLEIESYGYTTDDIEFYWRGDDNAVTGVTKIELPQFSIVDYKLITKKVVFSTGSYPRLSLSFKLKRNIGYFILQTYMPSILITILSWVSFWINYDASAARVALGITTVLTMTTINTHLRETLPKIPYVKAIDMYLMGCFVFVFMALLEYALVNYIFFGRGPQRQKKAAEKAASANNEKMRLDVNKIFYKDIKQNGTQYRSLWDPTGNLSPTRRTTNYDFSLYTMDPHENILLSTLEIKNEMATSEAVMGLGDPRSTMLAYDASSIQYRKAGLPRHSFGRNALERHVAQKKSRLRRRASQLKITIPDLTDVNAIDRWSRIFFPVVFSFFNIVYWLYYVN
Sequence of Gamma-aminobutyric acid receptor subunit alpha-1/alpha-2/beta-2/gamma-2 (P18507 whole entry): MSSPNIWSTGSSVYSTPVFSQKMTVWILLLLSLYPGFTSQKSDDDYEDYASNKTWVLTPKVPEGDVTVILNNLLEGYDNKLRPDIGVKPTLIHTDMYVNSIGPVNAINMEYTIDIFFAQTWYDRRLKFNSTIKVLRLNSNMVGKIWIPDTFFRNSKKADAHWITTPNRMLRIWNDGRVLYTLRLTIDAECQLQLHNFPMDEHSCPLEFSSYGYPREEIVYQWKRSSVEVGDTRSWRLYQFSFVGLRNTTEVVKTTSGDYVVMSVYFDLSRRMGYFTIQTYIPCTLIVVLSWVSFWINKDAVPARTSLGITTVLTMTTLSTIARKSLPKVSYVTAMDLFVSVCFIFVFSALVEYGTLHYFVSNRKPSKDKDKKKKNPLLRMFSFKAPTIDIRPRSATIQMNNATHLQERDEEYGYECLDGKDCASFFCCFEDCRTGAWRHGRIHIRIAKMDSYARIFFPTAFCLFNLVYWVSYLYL
Sequence of Gamma-aminobutyric acid receptor subunit alpha-1/alpha-2/beta-2/gamma-2 (P47869 whole entry): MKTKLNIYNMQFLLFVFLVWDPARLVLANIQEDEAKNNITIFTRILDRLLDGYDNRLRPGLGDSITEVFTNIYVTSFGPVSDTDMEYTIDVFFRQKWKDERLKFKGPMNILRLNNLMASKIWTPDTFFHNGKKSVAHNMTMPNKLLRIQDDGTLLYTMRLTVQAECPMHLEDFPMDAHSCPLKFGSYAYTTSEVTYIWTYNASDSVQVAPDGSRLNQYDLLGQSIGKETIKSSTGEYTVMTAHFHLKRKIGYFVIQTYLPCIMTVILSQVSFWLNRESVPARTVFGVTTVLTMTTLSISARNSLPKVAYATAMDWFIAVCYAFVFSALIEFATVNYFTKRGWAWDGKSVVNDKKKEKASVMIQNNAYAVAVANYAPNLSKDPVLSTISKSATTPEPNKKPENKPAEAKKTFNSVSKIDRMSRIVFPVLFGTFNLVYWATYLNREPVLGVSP
Sequence of Glucagon receptor (P47871 whole entry): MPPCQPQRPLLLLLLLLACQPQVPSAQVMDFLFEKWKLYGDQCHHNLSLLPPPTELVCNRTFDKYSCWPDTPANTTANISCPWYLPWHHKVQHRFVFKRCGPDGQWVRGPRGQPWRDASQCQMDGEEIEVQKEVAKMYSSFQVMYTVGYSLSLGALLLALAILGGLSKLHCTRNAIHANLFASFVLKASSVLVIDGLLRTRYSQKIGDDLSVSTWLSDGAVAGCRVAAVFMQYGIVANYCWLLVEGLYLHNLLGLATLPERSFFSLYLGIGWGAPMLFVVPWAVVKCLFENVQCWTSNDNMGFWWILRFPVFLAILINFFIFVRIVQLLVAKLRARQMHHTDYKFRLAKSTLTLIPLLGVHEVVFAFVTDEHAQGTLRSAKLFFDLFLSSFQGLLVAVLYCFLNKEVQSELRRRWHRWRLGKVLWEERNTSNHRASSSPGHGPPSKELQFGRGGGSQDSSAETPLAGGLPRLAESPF
Sequence of D(1A) dopamine receptor (P21728 whole entry): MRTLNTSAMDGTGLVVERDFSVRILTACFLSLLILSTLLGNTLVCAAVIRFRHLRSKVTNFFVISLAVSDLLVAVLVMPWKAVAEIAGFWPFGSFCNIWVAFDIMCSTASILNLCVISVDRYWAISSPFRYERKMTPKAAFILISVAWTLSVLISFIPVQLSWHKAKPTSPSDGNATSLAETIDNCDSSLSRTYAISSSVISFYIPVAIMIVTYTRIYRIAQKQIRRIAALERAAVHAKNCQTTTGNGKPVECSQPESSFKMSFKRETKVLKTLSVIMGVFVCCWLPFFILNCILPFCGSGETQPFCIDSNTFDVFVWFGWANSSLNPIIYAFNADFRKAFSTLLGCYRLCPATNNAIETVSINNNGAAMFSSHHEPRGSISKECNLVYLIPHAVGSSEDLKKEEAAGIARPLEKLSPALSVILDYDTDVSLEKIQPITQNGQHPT
Sequence of 5-hydroxytryptamine receptor 2A (P28223 whole entry): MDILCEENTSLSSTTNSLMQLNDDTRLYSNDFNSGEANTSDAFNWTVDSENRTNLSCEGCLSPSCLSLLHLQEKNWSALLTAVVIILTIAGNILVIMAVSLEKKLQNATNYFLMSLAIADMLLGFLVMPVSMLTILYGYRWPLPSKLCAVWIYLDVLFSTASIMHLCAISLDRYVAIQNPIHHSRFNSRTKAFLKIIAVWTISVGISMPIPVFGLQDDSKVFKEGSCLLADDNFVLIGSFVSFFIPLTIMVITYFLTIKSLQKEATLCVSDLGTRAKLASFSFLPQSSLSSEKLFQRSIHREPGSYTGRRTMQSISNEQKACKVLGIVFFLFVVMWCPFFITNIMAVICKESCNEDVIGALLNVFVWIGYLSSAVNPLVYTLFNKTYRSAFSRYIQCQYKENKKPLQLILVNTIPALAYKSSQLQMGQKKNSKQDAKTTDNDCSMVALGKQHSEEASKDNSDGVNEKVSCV

Compound	AC50 (Androgen receptor)	AC50 [1]	other results
CC[C@H](c1ccc(O)cc1)[C@@H](CC)c1ccc(O)cc1 [HEXESTROL]	6.95 µM		
O=C(O)COc1ccc(C(=O)c2cccs2)c(Cl)c1Cl	> 30 µM	> 10 µM	
N#Cc1ccc2c(c1)N(CCCN1CCC(O)CC1)c1ccccc1S2 [PERICIAZINE]	> 30 µM		
CC1=C(/C=C/C(C)=C/C=C/C(C)=C/C(=O)O)C(C)(C)CCC1 [TRETINOIN]		> 3 µM	
OC[C@H]1O[C@@H](c2ccc(Cl)c(Cc3ccc(O[C@H]4CCOC4)cc3)c2)[C@H](O)[C@@H](O)[C@@H]1O [EMPAGLIFLOZIN]	> 30 µM		
C/C=C/C/C=C/CCC(=O)[C@H]1O[C@H]1C(N)=O [CERULENIN]	> 30 µM		
CCOC(=O)C1=C[C@@H](OC(CC)CC)[C@H](NC(C)=O)[C@@H](N)C1 [OSELTAMIVIR]		> 30 µM	
Cc1onc(-c2ccccc2)c1C(=O)N[C@@H]1C(=O)N2[C@@H]1SC(C)(C)[C@@H]2C(=O)O [OXACILLIN]		> 30 µM	
CC(CN1CC(=O)NC(=O)C1)N1CC(=O)NC(=O)C1 (configuration not stated) [RAZOXANE]	> 30 µM	> 30 µM	
CCCN(CCC)C(=O)Cc1c(-c2ccc(Cl)cc2)nc2ccc(Cl)cn12 [ALPIDEM]			AC50 (D(1A) dopamine receptor): > 10 µM; AC50 (Glucagon receptor): > 10 µM
CC(C)OC(=O)CCC/C=C\C[C@@H]1[C@@H](/C=C/C(F)(F)COc2ccccc2)[C@H](O)C[C@@H]1O [TAFLUPROST]	> 30 µM	> 30 µM	
COc1cc2nc(N3CCN(C(=O)C4CCCO4)CC3)nc(N)c2cc1OC (configuration not stated) [TERAZOSIN]			AC50 (D(1A) dopamine receptor): > 10 µM; AC50 (Glucagon receptor): > 30 µM
Nc1ccc(S(=O)(=O)Nc2nccs2)cc1 [SULFATHIAZOLE]			AC50 (D(1A) dopamine receptor): > 10 µM; AC50 (Glucagon receptor): > 30 µM; AC50 (Progesterone receptor): > 30 µM
CC(C)N(CCC(C(N)=O)(c1ccccc1)c1ccccn1)C(C)C (configuration not stated) [DISOPYRAMIDE]			AC50 (Glucagon receptor): > 30 µM; AC50 (Progesterone receptor): > 30 µM
CCCC(CCC)C(=O)O [VALPROIC ACID]			AC50 (D(1A) dopamine receptor): > 10 µM; AC50 (Glucagon receptor): > 30 µM; AC50 (Progesterone receptor): > 30 µM
[H]/N=C(\N/C(=N/[H])Nc1ccc(Cl)cc1)NC(C)C [PROGUANIL]		> 30 µM	
Cc1ccccc1C(=O)Nc1ccc(C(=O)N2CCCC(N(C)C)c3ccccc32)cc1 (configuration not stated) [MOZAVAPTAN]		> 30 µM	
O=C1CCc2cc(OCCCCc3nnnn3C3CCCCC3)ccc2N1 [CILOSTAZOL]			AC50 (Progesterone receptor): > 30 µM
C[C@@H](NCCCc1cccc(C(F)(F)F)c1)c1cccc2ccccc12			AC50 [2]: > 30 µM
COc1c2ccoc2cc2oc(=O)ccc12 [BERGAPTEN]		> 30 µM	
N[C@@H](CS)C(=O)O [CYSTEINE]		> 30 µM	
CC(CCc1ccccc1)NCC(O)c1ccc(O)c(C(N)=O)c1 (configuration not stated) [LABETALOL]		> 30 µM	
C=C[C@H]1C[N@@]2CC[C@H]1C[C@@H]2[C@@H](O)c1ccnc2ccc(OC)cc12 [QUINIDINE]			AC50 (Progesterone receptor): > 30 µM
C[C@H]1c2cccc(O)c2C(=O)C2=C(O)[C@]3(O)C(=O)C(C(N)=O)=C(O)[C@@H](N(C)C)[C@@H]3[C@@H](O)[C@@H]21 [DOXYCYCLINE]			AC50 (D(1A) dopamine receptor): > 10 µM; AC50 (Glucagon receptor): > 30 µM; AC50 (Progesterone receptor): > 30 µM
CO[C@H]1/C=C/O[C@@]2(C)Oc3c(C)c(O)c4c(O)c(c(/C=N/N5CCN(C)CC5)c(O)c4c3C2=O)NC(=O)/C(C)=C\C=C\[C@H](C)[C@H](O)[C@@H](C)[C@@H](O)[C@@H](C)[C@H](OC(C)=O)[C@@H]1C [RIFAMPIN]			AC50 (D(1A) dopamine receptor): > 10 µM; AC50 (Glucagon receptor): > 30 µM; AC50 (Progesterone receptor): > 30 µM

Compound	AC50 (Androgen receptor)	AC50 [1]	other results
CC(C)C[C@H](NC(=O)CNC(=O)c1cc(Cl)ccc1Cl)B(O)O [IXAZOMIB]	> 30 µM		
O=C(O)c1cc(/N=N/c2ccc(O)c(C(=O)O)c2)ccc1O [OLSALAZINE]	> 30 µM		
CCOC(=O)c1c(C)cc2c(CO)n[nH]c(=O)c2c1C [OXAGRELATE]	> 30 µM		
CN1CCCCC1CCN1c2ccccc2Sc2ccc([S+](C)[O-])cc21 (configuration not stated) [MESORIDAZINE]		> 30 µM	
CC(=O)O[C@]1(C(C)=O)CC[C@H]2[C@@H]3C=C(C)C4=CC(=O)CC[C@@H]4[C@H]3CC[C@@]21C [NOMEGESTROL ACETATE]	0.02 µM		AC50 [2]: > 30 µM
C[C@]12C=CC(=O)N[C@@H]1CC[C@@H]1[C@@H]2CC[C@]2(C)[C@@H](C(=O)Nc3cc(C(F)(F)F)ccc3C(F)(F)F)CC[C@@H]12 [DUTASTERIDE]			AC50 [2]: > 10 µM
COc1ccccc1Oc1c(NS(=O)(=O)c2ccc(C(C)(C)C)cc2)nc(-c2ncccn2)nc1OCCO [BOSENTAN]			AC50 (D(1A) dopamine receptor): > 10 µM; AC50 (Glucagon receptor): > 30 µM; AC50 (Progesterone receptor): > 30 µM
FC(F)(F)c1ccc(CNc2ccc(Cc3c[nH]c4ncc(Cl)cc34)cn2)cn1 [PEXIDARTINIB]	> 30 µM	> 3 µM	
CN1CCC(=C2c3ccccc3Sc3ccccc32)CC1 [PIMETHIXENE]	> 30 µM		
COc1ccc(CC2c3cc(OC)c(OC)cc3CC[N+]2(C)CCC(=O)OCCCCCOC(=O)CC[N+]2(C)CCc3cc(OC)c(OC)cc3C2Cc2ccc(OC)c(OC)c2)cc1OC (configuration not stated)			AC50 [2]: > 30 µM
CC(C(=O)O)c1ccc2c(c1)[nH]c1ccc(Cl)cc12 (configuration not stated) [CARPROFEN]			AC50 [2]: > 10 µM
CC(C)(O)CNc1nc(Nc2ccnc(C(F)(F)F)c2)nc(-c2cccc(C(F)(F)F)n2)n1 [ENASIDENIB]	> 30 µM	> 30 µM	
CN(CC1(C)CCCO1)S(=O)(=O)c1ccc(Cl)c(S(N)(=O)=O)c1 (configuration not stated) [MEFRUSIDE]			AC50 [2]: > 30 µM
C[C@]1(Cn2ccnn2)[C@H](C(=O)O)N2C(=O)C[C@H]2S1(=O)=O [TAZOBACTAM]		> 30 µM	
C[N+](C)(C)C[C@H](O)CC(=O)[O-] [LEVOCARNITINE]		> 30 µM	
CC[C@H](C)C[C@H](C)CCCCCCCCC(=O)N[C@H]1C[C@@H](O)[C@@H](NCCN)NC(=O)[C@@H]2[C@@H](O)CCN2C(=O)[C@H]([C@H](O)CCN)NC(=O)[C@H]([C@H](O)[C@@H](O)c2ccc(O)cc2)NC(=O)[C@@H]2C[C@@H](O)CN2C(=O)[C@H]([C@@H](C)O)NC1=O [CASPOFUNGIN]	> 30 µM		
CCc1nc(C(N)=O)c(Nc2ccc(N3CCC(N4CCN(C)CC4)CC3)c(OC)c2)nc1NC1CCOCC1 [GILTERITINIB]	> 30 µM		
CN(C)CCc1c[nH]c2ccc(Cn3cncn3)cc12 [RIZATRIPTAN]			AC50 [2]: 7.75 µM; AC50 (D(1A) dopamine receptor): > 10 µM; AC50 (Glucagon receptor): > 30 µM; AC50 (Progesterone receptor): > 30 µM
CC[C@H]1OC(=O)[C@H](C)C(=O)[C@H](C)[C@@H](O[C@@H]2O[C@H](C)C[C@H](N(C)C)[C@H]2O)[C@](C)(OC)C[C@@H](C)C(=O)[C@H](C)[C@H]2N(CCCCn3cnc(-c4cccnc4)c3)C(=O)O[C@]12C [TELITHROMYCIN]		> 30 µM	
O=C1CN(/N=C/c2ccc(-c3ccc([N+](=O)[O-])cc3)o2)C(O)=N1 [DANTROLENE]			AC50 [2]: > 10 µM
OC[C@H]1O[C@@H](c2ccc(F)c(Cc3cc4ccccc4s3)c2)[C@H](O)[C@@H](O)[C@@H]1O [IPRAGLIFLOZIN]	> 30 µM		
C#C[C@]1(O)CC[C@H]2[C@@H]3CCC4=CC(=O)CC[C@@H]4[C@H]3C(=C)C[C@@]21CC [ETONOGESTREL]			AC50 [2]: > 30 µM
C[C@@H]1C[C@H]2[C@@H]3CCC4=CC(=O)C=C[C@]4(C)[C@@]3(Cl)[C@@H](O)C[C@]2(C)[C@@]1(OC(=O)c1ccco1)C(=O)CCl [MOMETASONE FUROATE]	0.0337 µM	> 30 µM	
C[C@H]1O[C@@H](n2cc(F)c(=O)[nH]c2=O)[C@H](O)[C@@H]1O [DOXIFLURIDINE]		> 30 µM	
